Assays:
[1] = tested on: whole cortex wound of wild C57 adult male mice; assay: Experiment of skin wound healing (Example 2, wound without bacterial infection); format: in vivo, mice (C57BL/6); details: 10 mg/mouse mixed with 5 mg vaseline
Method: Wild C57 adult male mice (C57BL/6, purchased from Vital River) were taken and anesthetized, and then subjected to backside unhairing to establish a whole cortex wound with a 6 mm biopsy puncher. Attention should be paid to disinfection for preventing infection.
A normal control group: 5 mice, no administration.
A group administrated with vaseline: vaseline (vaseline for medical purpose, purchased from Tianjin Zhiyuan Chemical Reagent Co., Ltd., the same below), 5 mg vaseline/mouse, 5 mice.
A group administrated with A drug A: 10 mg/mouse, 10 mice (as a flavonoid control, and the drug A was soybean isoflavones).
A group administrated with a drug B: 10 mg/mouse, 10 mice (as a flavonoid control, and the drug B was quercetin).
A group administrated with cannflavin A: cannflavin A, 10 mg/mouse, 10 mice. The administration modes of the latter 4 groups were all application onto the wound, and the administration was conducted once a day. Because vaseline was a commonly used ointment base^[8], in the latter 3 groups, the drug A, the drug B or cannflavin A were respectively well mixed with 5 mg of vaseline and then administered.
Photos were taken to record a wound healing condition of mice on days 0, 4 and 7 of administration, and the healing degree of a wound area was calculated by the PhotoShop software with 1 cm^2 as a scale. […]

[2] = tested on: whole cortex wound inoculated with Staphylococcus aureus, mice with type II diabetes; assay: Healing of skin wound infected with Staphylococcus aureus (2), comparison with flavonoid controls (Example 4); format: in vivo, mice (C57BL/6); details: 10 mg/mouse mixed with 5 mg vaseline, once a day
Description: normal mice as control and mice with type II diabetes established according to the method of Example 1 were taken, anesthetized, and then subjected to backside unhairing to establish a whole cortex wound with a 6 mm biopsy puncher. The mice were inoculated with 1.5×10^6 CFU/ml of Staphylococcus aureus. […]
The experimental method was the same as that of Example 3, except that the grouping and administration were as follows:
A normal control group: no administration, 5 mice.
A type II diabetes control group administrated with vaseline: vaseline, 5 mg vaseline/mouse, 5 mice.
A type II diabetes group administrated with vaseline+a drug A: 10 mg/mouse, 10 mice (as a flavonoid control, and the drug A was soybean isoflavones).
A type II diabetes group administrated with vaseline+a drug B: 10 mg/mouse, 10 mice (as a flavonoid control, and the drug B was quercetin).
A type II diabetes group administrated with vaseline+cannflavin A: […], 10 mice.
The aforementioned 5 groups were all inoculated with Staphylococcus aureus according to the previous step (1).
The administration modes of the latter 4 groups were all application onto the wound, and the administration was conducted once a day. In the latter 3 groups, the drug A, the drug B or cannflavin A were respectively well mixed with 5 mg of vaseline as an ointment base and then administered.

SMILES: O=c1c(O)c(-c2ccc(O)c(O)c2)oc2cc(O)cc(O)c12 [drug B, quercetin, reference compound]
- time in which the wound basically healed ([1]; applied onto the wound once a day, normal mice, no infection): about 4 days
- promoting the healing degree of wounds without bacterial infection, compared among drugs, vaseline and control ([1]; once a day, days 0, 4 and 7): no significant difference
- help to wound healing [2]: could not help wound healing
